Data published in patent publication US8580812B2, “Heteroaryl amide analogues as P2X7 antagonists” (H. Lundbeck A/S, priority 2007, dated 2013).

Target: T1, P2X7 (Homo sapiens, UniProt Q99572)
T1 construct: host or cells: SH-SY5Y
T1 sequence (Q99572 1-595): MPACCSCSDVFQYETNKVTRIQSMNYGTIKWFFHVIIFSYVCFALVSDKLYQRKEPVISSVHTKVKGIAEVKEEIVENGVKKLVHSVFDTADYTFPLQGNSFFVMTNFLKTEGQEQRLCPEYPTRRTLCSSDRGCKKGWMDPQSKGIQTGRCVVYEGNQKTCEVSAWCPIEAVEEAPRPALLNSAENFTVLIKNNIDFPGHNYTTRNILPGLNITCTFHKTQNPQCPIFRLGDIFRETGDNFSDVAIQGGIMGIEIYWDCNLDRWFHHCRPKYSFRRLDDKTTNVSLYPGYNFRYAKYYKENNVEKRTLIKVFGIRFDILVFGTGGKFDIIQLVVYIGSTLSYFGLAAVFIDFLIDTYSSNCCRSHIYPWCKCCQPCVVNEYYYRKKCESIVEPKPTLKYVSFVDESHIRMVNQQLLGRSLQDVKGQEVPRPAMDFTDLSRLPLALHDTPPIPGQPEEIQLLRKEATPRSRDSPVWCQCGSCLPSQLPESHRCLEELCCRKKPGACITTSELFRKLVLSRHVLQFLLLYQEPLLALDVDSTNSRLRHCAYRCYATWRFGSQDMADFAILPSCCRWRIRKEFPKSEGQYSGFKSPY
Test: High Throughput P2X7 Calcium Mobilization Assay (Example 4A), antagonist activity
Format: cell-based
Conditions: SH-SY5Y cells, 50% decrease in fluorescence response of cells exposed to 80 μM BzATP
Outline: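 SH-SY5Y cells loaded with Fluo-4 AM were preincubated 1 h at room temperature with compound (typically 1–2500 nM) in sucrose/HEPES buffer, pH 7.4, then challenged with 80 μM BzATP (final, about EC50). Peak fluorescence over 2 min gave percent inhibition relative to agonist-only wells, and IC50 came from a Hill-equation fit.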

| SMILES | IC50 [nM] |
| --- | --- |
| CN(Cc1ccccn1)Cc1cc2c(C(=O)NCC34CC5CC(CC(C5)C3)C4)cccn2n1 [Compound 53, N-(adamantan-1-ylmethyl)-2-{[methyl(pyridin-2-ylmethyl)amino]methyl} pyrazolo[1,5-a]pyridine-4-carboxamide] | ≤ 2000 |
| CN(Cc1cccnc1)Cc1cc2c(C(=O)NCC34CC5CC(CC(C5)C3)C4)cccn2n1 [Compound 54, N-(adamantan-1-ylmethyl)-2-{[methyl(pyridin-3-ylmethyl)amino]methyl} pyrazolo[1,5-a]pyridine-4-carboxamide] | ≤ 2000 |
| CN(CCF)C(=O)c1cc2c(C(=O)NCC3(c4ccc(C(F)(F)F)cc4)CCCCC3)cccn2n1 [Compound 93, Pyrazolo[1,5-a]pyridine-2,4-dicarboxylic acid 2-[(2-fluoro-ethyl)-methyl-amide]-4-{[1-(4-trifluoromethyl-phenyl)-cyclohexylmethyl]-amide}] | ≤ 2000 |
| O=C(NCCF)c1cc2c(C(=O)NCC34CC5CC(CC(C5)C3)C4)cccn2n1 [Compound 62, 4-N-(adamantan-1-ylmethyl)-2-N-(2-fluoroethyl)pyrazolo [1,5-a]pyridine-2,4-dicarboxamide] | ≤ 2000 |
| CN(C(=O)c1cc2c(C(=O)NCC34CC5CC(CC(C5)C3)C4)cccn2n1)c1ccncc1 [Compound 39, 4-N-(adamantan-1-ylmethyl)-2-N-methyl-2-N-pyridin-4-ylpyrazolo[1,5-a]pyridine-2,4-dicarboxamide] | ≤ 2000 |
| CC(C)N[C@@H]1CCN(C(=O)c2cc3c(C(=O)NCC45CC6CC(CC(C6)C4)C5)cccn3n2)C1 [Compound 16, N-(adamantan-1-ylmethyl)-2-{[(3R)-3-(isopropylamino)pyrrolidin-1-yl]carbonyl}pyrazolo [l,5-a]pyridine-4-carboxamide] | ≤ 2000 |
| N#Cc1ccc(C(=O)c2ccc3c(C(=O)NCC45CC6CC(CC(C6)C4)C5)cccn23)cc1 [Compound 109, N-(adamantan-1-ylmethyl)-3-(4-cyanobenzoyl)indolizine-8-carboxamide] | ≤ 2000 |
| CN(Cc1cncn1C)C(=O)c1cc2c(C(=O)NCC34CC5CC(CC(C5)C3)C4)cccn2n1 [Compound 26, 4-N-(adamantan-1-ylmethyl)-2-N-methyl-2-N-[(1-methyl-1H-imidazol-5-yl)methyl]pyrazolo[1,5-a]pyridine-2,4-dicarboxamide] | ≤ 2000 |

Further lines, results first:

| IC50 [nM] | SMILES |
| --- | --- |
| ≤ 2000 | CCN[C@@H]1CCN(C(=O)c2cc3c(C(=O)NCC45CC6CC(CC(C6)C4)C5)cccn3n2)C1 [Compound 47, N-(adamantan-1-ylmethyl)-2-{[(3R)-3-(ethylamino)pyrrolidin-1-yl]carbonyl}pyrazolo [1,5-a]pyridine-4-carboxamide] |
| ≤ 2000 | O=C(Cc1cc2c(C(=O)NCC34CC5CC(CC(C5)C3)C4)cccn2n1)NCC(F)F [Compound 60, N-(adamantan-1-ylmethyl)-2-{2-[(2,2-difluoroethyl)amino]-2-oxoethyl}pyrazolo[1,5-a]pyridine-4-carboxamide] |
| ≤ 2000 | CN(C(=O)c1cc2c(C(=O)NCC34CC5CC(CC(C5)C3)C4)cccn2n1)C1CCOC1 (stereo not drawn) [Compound 28, 4-N-(adamantan-1-ylmethyl)-2-N-methyl-2-N-(tetrahydrofuran-3-yl)pyrazolo[1,5-a]pyridine-2,4-dicarboxamide] |
| ≤ 2000 | NC(=O)c1ccc(C(=O)c2ccc3c(C(=O)NCC45CC6CC(CC(C6)C4)C5)cccn23)cc1 [Compound 110, N-(adamantan-1-ylmethyl)-3-(4-carbamoylbenzoyl) indolizine-8-carboxamide] |
| ≤ 2000 | O=C1NCC2(CCN(C(=O)c3cc4c(C(=O)NCC56CC7CC(CC(C7)C5)C6)cccn4n3)CC2)O1 [Compound 36, N-(adamantan-1-ylmethyl)-2-[(2-oxo-1-oxa-3,8-diazaspiro[4.5]dec-8-yl)carbonyl]pyrazolo [1,5-a]pyridine-4-carboxamide] |
| ≤ 2000 | CN(Cc1ccccc1F)C(=O)c1cc2c(C(=O)NCC34CC5CC(CC(C5)C3)C4)cccn2n1 [Compound 65, 4-N-(adamantan-1-ylmethyl)-2-N-(2-fluorobenzyl)-2-N-methylpyrazolo[1,5-a]pyridine-2,4-dicarboxamide] |
| ≤ 2000 | CN(CC(F)F)C(=O)c1cc2c(C(=O)NCC34CC5CC(CC(C5)C3)C4)cccn2n1 [Compound 75, 4-N-(adamantan-1-ylmethyl)-2-N-(2,2-difluoroethyl)-2-N-methylpyrazolo[1,5-a]pyridine-2,4-dicarboxamide] |
| ≤ 2000 | CN(CCF)C(=O)c1cc2c(C(=O)NCC3(c4ccc(Cl)cc4)CCCCC3)cccn2n1 [Compound 85, 4-N-{[1-(4-chlorophenyl)cyclohex-yl]methyl}-2-N-(2-fluoroethyl)-2-N-methylpyrazolo[1,5-a]pyridine-2,4-dicarboxamide] |
| ≤ 2000 | CC(C)CC(CNC(=O)c1cccn2nc(C(=O)N3CCC[C@@H](N)C3)cc12)c1ccccc1 (stereo partly drawn) [Compound 43, 2-{[(3R)-3-aminopiperidin-1-yl]carbonyl}-N-(4-methyl-2-phenylpentyl)pyrazolo [1,5-a]pyridine-4-carboxamide] |
| ≤ 2000 | CC(C)CC(CNC(=O)c1cccn2nc(C(=O)N3CCOCC3)cc12)c1ccc(Cl)cc1 (stereo not drawn) [Compound 91, N-[2-(4-chlorophenyl)-4-methylpentyl]-2-(morpholin-4-ylcarbonyl)pyrazolo [1,5-a]pyridine-4-carboxamide] |
